For orientation: EC50 means the concentration at which the effect is half-maximal.

Where only a bound is given, the exact number is not on record here.

The test concerns the target T1, apelin receptor (APJ) (Homo sapiens, UniProt P35414).
T1 sequence (P35414 1-380): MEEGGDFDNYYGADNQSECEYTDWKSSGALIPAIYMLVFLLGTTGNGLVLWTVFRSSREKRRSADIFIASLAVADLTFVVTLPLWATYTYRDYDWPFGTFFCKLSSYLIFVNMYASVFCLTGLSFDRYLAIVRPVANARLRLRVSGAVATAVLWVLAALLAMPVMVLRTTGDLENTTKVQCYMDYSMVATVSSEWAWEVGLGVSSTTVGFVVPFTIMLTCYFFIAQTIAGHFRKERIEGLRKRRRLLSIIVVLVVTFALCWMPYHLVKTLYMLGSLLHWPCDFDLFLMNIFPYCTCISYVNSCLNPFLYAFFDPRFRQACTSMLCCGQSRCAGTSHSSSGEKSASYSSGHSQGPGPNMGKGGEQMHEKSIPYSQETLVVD
The test is described as follows: In vitro apelin agonist activity (methods of Giddings et al., Apelin-13 as positive control). Type of test: cell-based. The settings on record: in vitro apelin agonist activity, methods of Giddings et al., Apelin-13 as positive control; read-out: EC50 (nM) Ave. From the text:
Characterization of the Apelin Agonist Activity of the Compounds
1:39-47, the contents of which are hereby incorporated by reference in its entirety. Using the methods described in Giddings et al. and Apelin-13 as a positive control.
`O=C(C[C@H](CCN1CCCC(F)(F)C1)NC(=O)c1cc(-c2ccccc2Cl)n(C2CCCC2)n1)Nc1nccs1` [compound 429, (3S)-3-{[5-(2-chlorophenyl)-1-cyclopentyl-1H-pyrazol-3-yl]formamido}-5-(3,3-difluoropiperidin-1-yl)-N-(1,3-thiazol-2-yl)pentanamide]: the EC50 is 6.1 nM.

With `O=C(C[C@H](CCN1CCC(F)(F)CC1)NC(=O)c1cc(-c2ccccc2C(F)(F)F)n(C2CCCC2)n1)Nc1nccs1` [compound 430, (3S)-3-({1-cyclopentyl-5-[2-(trifluoromethyl)phenyl]-1H-pyrazol-3-yl}formamido)-5-(4,4-difluoropiperidin-1-yl)-N-(1,3-thiazol-2-yl)pentanamide], the EC50 came out at 17.5 nM.

Turning to `CN(C(=O)C[C@H](CCN1CCCC(F)(F)C1)NC(=O)c1cc(-c2ccccc2C(F)(F)F)n(C2CCCC2)n1)c1nccs1` [compound 431, (3S)-3-({1-cyclopentyl-5-[2-(trifluoromethyl)phenyl]-1H-pyrazol-3-yl}formamido)-5-(3,3-difluoropiperidin-1-yl)-N-methyl-N-(1,3-thiazol-2-yl)pentanamide], the EC50 is 22.5 nM.

As to `CC(F)(F)c1ccccc1-c1cc(C(=O)N[C@@H](CCN2CCCC(F)(F)C2)CC(=O)O)nn1C1CCCC1` [compound 432, (3S)-3-({1-cyclopentyl-5-[2-(1,1-difluoroethyl)phenyl]-1H-pyrazol-3-yl}formamido)-5-(3,3-difluoropiperidin-1-yl)pentanoic acid], the EC50 is 16 nM.

For `O=C(O)C[C@H](CCN1CCCC(F)(F)C1)NC(=O)c1cc(-c2ccccc2Cl)n(C2CCCC2)n1` [compound 433, (3S)-3-{[5-(2-chlorophenyl)-1-cyclopentyl-1H-pyrazol-3-yl]formamido}-5-(3,3-difluoropiperidin-1-yl)pentanoic acid], the EC50 worked out at 151 nM.

`O=C(C[C@H](CCN1CCCCC1)NC(=O)c1cc(-c2ccsc2C(F)(F)F)n(C2CCCC2)n1)NC1CCC1` [compound 434]: the EC50 was 641 nM.

For the compound `COc1cccc(OC)c1-c1cc(C(=O)N[C@@H](/C=C/c2ccccn2)CC(=O)NC2CCC2)nn1C1CCCC1` [compound 435, (3R,4E)-N-cyclobutyl-3-{[1-cyclopentyl-5-(2,6-dimethoxyphenyl)-1H-pyrazol-3-yl]formamido}-5-(pyridin-2-yl)pent-4-enamide], the EC50 was 9210 nM.

As for `Cc1cnc(NC(=O)C[C@H](CCN2CCC(F)(F)CC2)NC(=O)c2cc(-c3ccccc3C(F)(F)F)n(C3CCCC3)n2)s1` [compound 436, (3S)-3-({1-cyclopentyl-5-[2-(trifluoromethyl)phenyl]-1H-pyrazol-3-yl]formamido)-5-(4,4-difluoropiperidin-1-yl)-N-(5-methyl-1,3-thiazol-2-yl)pentanamide], the EC50 came to 58 nM.

Take `C#Cc1ccccc1-c1cc(C(=O)N[C@@H](CCN2CCCCC2)CC(=O)NC2CCC2)nn1C1CCCC1` [compound 438, (3S)-N-cyclobutyl-3-{[1-cyclopentyl-5-(2-ethynylphenyl)-1H-pyrazol-3-yl]formamido}-5-(piperidin-1-yl)pentanamide]: the EC50 is 290 nM.

Turning to `O=C(C[C@H](CCN1CCC(F)(F)CC1)NC(=O)c1cc(-c2ccccc2C(F)(F)F)n(C2CCCC2)n1)NCc1ccccc1` [compound 439, (3S)-N-benzyl-3-({1-cyclopentyl-5-[2-(trifluoromethyl)phenyl]-1H-pyrazol-3-yl}formamido)-5-(4,4-difluoropiperidin-1-yl)pentanamide], the EC50 came to 920 nM.

As for `O=C(C[C@H](CCN1CCC(F)(F)CC1)NC(=O)c1cc(-c2ccccc2C(F)(F)F)n(C2CCCC2)n1)NCC1CCCCC1` [compound 440, (3S)-N-(cyclohexylmethyl)-3-({1-cyclopentyl-5-[2-(trifluoromethyl)phenyl]-1H-pyrazol-3-yl]formamido)-5-(4,4-difluoropiperidin-1-yl)pentanamide], the EC50 stood at 301 nM.

Consider `CC(C)C[C@@H](CC(=O)NCc1ccccc1)NC(=O)c1cc(-c2ccccc2C(F)(F)F)n(C2CCCC2)n1` [compound 441, (3S)-N-benzyl-3-({1-cyclopentyl-5-[2-(trifluoromethyl)phenyl]-1H-pyrazol-3-yl}formamido)-5-methylhexanamide], for which the EC50 is over 10000 nM.

As for `O=C(CCNC(=O)c1cc(-c2ccccc2C(F)(F)F)n(C2CCCC2)n1)NCc1ccccc1` [compound 442, N-benzyl-3-({1-cyclopentyl-5-[2-(trifluoromethyl)phenyl]-1H-pyrazol-3-yl}formamido)propanamide], the EC50 is over 10000 nM.

In the case of `COc1cccc(OC)c1-c1cc(C(=O)N[C@@H](CCN2CCCCC2)Cc2nnnn2C)nn1C1CCCC1` [compound 445, 1-cyclopentyl-5-(2,6-dimethoxyphenyl)-N-[(2S)-1-(1-methyl-1H-1,2,3,4-tetrazol-5-yl)-4-(piperidin-1-yl)butan-2-yl)-1H-pyrazole-3-carboxamide], the EC50 came to 2830 nM.

Regarding `CN(C(=O)C[C@H](CCN1CCCC(F)(F)C1)NC(=O)c1cc(-c2ccccc2Cl)n(C2CCCC2)n1)c1nccs1` [compound 447, (3S)-3-{[5-(2-chlorophenyl)-1-cyclopentyl-1H-pyrazol-3-yl]formamido}-5-(3,3-difluoropiperidin-1-yl)-N-methyl-N-(1,3-thiazol-2-yl)pentanamide], the EC50 worked out at 84 nM.

Regarding `COc1cccc(OC)c1-c1cc(C(=O)N[C@@H](CCN2CCCCC2)Cc2nccs2)nn1C1CCCC1` [compound 448, 1-cyclopentyl-5-(2,6-dimethoxyphenyl)-N-[(2S)-4-(piperidin-1-yl)-1-(1,3-thiazol-2-yl)butan-2-yl]-1H-pyrazole-3-carboxamide], the EC50 worked out at 1340 nM.

Consider `O=C(CCNC(=O)c1cc(-c2ccccc2C(F)(F)F)n(C2CCCC2)n1)Nc1nccs1` [compound 449, 3-({1-cyclopentyl-5-[2-(trifluoromethyl)phenyl]-1H-pyrazol-3-yl}formamido)-N-(1,3-thiazol-2-yl)propanamide], for which the EC50 was 12700 nM.

Take `O=C(N[C@@H](CCN1CCCC(F)(F)C1)Cc1nnc[nH]1)c1cc(-c2ccccc2Cl)n(C2CCCC2)n1` [compound 450, 5-(2-chlorophenyl)-1-cyclopentyl-N-[(2S)-4-(3,3-difluoropiperidin-1-yl)-1-(4H-1,2,4-triazol-3-yl)butan-2-yl]-1H-pyrazole-3-carboxamide]: the EC50 came to 30 nM.

Consider `CN(C(=O)C[C@H](CCN1CCCC(F)(F)C1)NC(=O)c1cc(-c2ccccc2C(F)(F)F)n(C2CCCC2)n1)c1ncco1` [compound 451, (3S)-3-({1-cyclopentyl-5-[2-(trifluoromethyl)phenyl]-1H-pyrazol-3-yl}formamido)-5-(3,3-difluoropiperidin-1-yl)-N-methyl-N-(1,3-oxazol-2-yl)pentanamide], for which the EC50 stood at 27 nM.

Consider `CN(C(=O)C[C@H](CCN1CCCC(F)(F)C1)NC(=O)c1cc(-c2ccccc2Cl)n(C2CCCC2)n1)c1ncco1` [compound 452, (3S)-3-{[5-(2-chlorophenyl)-1-cyclopentyl-1H-pyrazol-3-yl]formamido}-5-(3,3-difluoropiperidin-1-yl)-N-methyl-N-(1,3-oxazol-2-yl)pentanamide], for which the EC50 was 70 nM.

Regarding `O=C(C[C@H](CCN1CCCC(F)(F)C1)NC(=O)c1cc(-c2ccncc2Cl)n(C2CCCC2)n1)NC1CCC1` [compound 457, (3S)-3-{[5-(3-chloropyridin-4-yl)-1-cyclopentyl-1H-pyrazol-3-yl]formamidol}-N-cyclobutyl-5-(3,3-difluoropiperidin-1-yl)pentanamide], the EC50 stood at 1320 nM.

As to `Cc1nnc(C[C@H](CCN2CCCC(F)(F)C2)NC(=O)c2cc(-c3ccccc3Cl)n(C3CCCC3)n2)[nH]1` [compound 458, 5-(2-chlorophenyl)-1-cyclopentyl-N-[(2S)-4-(3,3-difluoropiperidin-1-yl)-1-(5-methyl-4H-1,2,4-triazol-3-yl)butan-2-yl]-1H-pyrazole-3-carboxamide], the EC50 is 261 nM.

As for `O=C(N[C@@H](CCN1CCCC(F)(F)C1)Cc1nnc(C(F)(F)F)[nH]1)c1cc(-c2ccccc2Cl)n(C2CCCC2)n1` [compound 459], the EC50 was 243 nM.

For `O=C(C[C@H](CCN1CCCC(F)(F)C1)NC(=O)c1cc(-c2cnccc2C(F)(F)F)n(C2CCCC2)n1)NC1CCC1` [compound 460, (3S)-N-cyclobutyl-3-(f 1-cyclopentyl-544-(trifluoromethyppyridin-3-yl1-1H-pyrazol-3-yl}formamido)-5-(3,3-difluoropiperidin-1-yl)pentanamide], the EC50 was 23 nM.

On to `O=C(O)C[C@H](CCc1ccc(F)cc1)NC(=O)c1cc(-c2ccccc2C(F)(F)F)n(C2CCCC2)n1` [compound 463], for which the 50% effective concentration (EC50) was 1240 nM.

Regarding `NNC(=O)C[C@H](CCc1ccc(F)cc1)NC(=O)c1cc(-c2ccccc2C(F)(F)F)n(C2CCCC2)n1` [compound 464], the EC50 was determined as 1040 nM.

With `NNC(=O)C[C@H](CCN1CCCC(F)(F)C1)NC(=O)c1cc(-c2ccccc2Cl)n(C2CCCC2)n1` [compound 465, 5-(2-chlorophenyl)-1-cyclopentyl-N-[(2S)-4-(3,3-difluoropiperidin-1-yl)-1-(hydrazinecarbonyl)butan-2-yl]-1H-pyrazole-3-carboxamide], the concentration giving a half-maximal response (EC50) came to 191 nM.

With `O=C(C[C@H](CCN1CCCC(F)(F)C1)NC(=O)c1cc(-c2cnccc2Cl)n(C2CCCC2)n1)NC1CCC1` [compound 466, (3S)-3-{[5-(4-chloropyridin-3-yl)-1-cyclopentyl-1H-pyrazol-3-yl]formamido}-N-cyclobutyl-5-(3,3-difluoropiperidin-1-yl)pentanamide], the concentration giving a half-maximal response (EC50) was 1220 nM.

The record behind these values is patent US11535630B2, “Apelin receptor (APJ) agonists and uses thereof” (Research Triangle Institute, priority 2015, dated 2022).
